# Key:
# p99 AmpC = molecular target: T1, p99 AmpC (Enterobacter cloacae, UniProt P05364); assay: β-lactamase enzyme inhibition assay, p99 AmpC (nitrocefin substrate); assay type: biochemical
# T1 construct: made in house; host or cells: E. coli BL21(DE3)
# Protocol: (§1) For SHV-5, KPC-2, p99AmpC and OXA-4813-lactamases, E. coli BL21(DE3) bacterial cells carrying expression plasmids (expressed as native untagged proteins) for the individual β-lactamases were grown in 1L of Superbroth (Teknova Inc. Hollister, Calif.) supplemented with 100 μg/ml kanamycin selection and 1×5052 (0.5% glycerol, 0.05% glucose and 0.2% α-lactose) at 35° C. for 18-20 hours. Cells were harvested by centrifugation (4,000 ×g, 4° C., 20 min), re-suspended in 50 ml of 10 mM HEPES pH 7.5 (1/20 of the initial volume). The cells were lysed by sonication (5 pulses of 45 seconds) at 45 Won ice. The lysates were clarified by centrifugation at 10,000 ×g for 40 minutes at 4° C. Samples were diluted 5-fold in 50 mM sodium acetate pH 5.0, stored overnight at 4° C., after which they were centrifuged at 10,000 ×g for 30 minutes to clarify, and filtered through 0.45 μm filters. The samples were loaded onto a 5 ml Capto S sepharose cation exchange column (GE Healthcare) pre-equilibrated with 50 mM sodium acetate pH 5.0. The column was washed with 5 column volumes of 50 mM sodium acetate pH 5.0 to wash out unbound protein and a linear gradient of NaCl (0 to 500 mM) was used to elute the protein (over 16 CV) from the column. Fractions were assayed for β-lactamase activity using Centa (Calbiochem, Gibbstown, N.J.) or Nitrocefin (EMD Millipore chemicals, Darmstadt, Germany) as a reporter β-lactamase substrate for activity in the isolated fractions. Active fractions were pooled, concentrated and further purified by gel filtration chromatography on a Superdex 75 prep grade gel filtration column (GE Healthcare, Piscataway, N.J.) pre -equilibrated in 50 mM Hepes pH 7.5, 150 mM NaCl. Active fractions were pooled, concentrated, and quantitated by BCA protein determination (ThermoScientific, Rockford, Ill.), dialyzed into PBS and frozen at […] in 20% glycerol until use.
# (§2) An equal volume of diluted enzyme stock was added, and the plates were incubated at 37° C. for 15 min. Nitrocefin was used as substrate for p99 AmpC, VIM-2 and OXA-48 and dispensed into each well at a final concentration of 100 μM. Absorbance at 486 nm was immediately monitored for 10 min using a Biotek Powerwave XS2 microplate spectrophotometer using the GEN5 software package (Biotek Instruments, Winooski Vt.). In an analogous fashion, imipenem was used as substrate for KPC-2 and Cefotaxime was used for SHV-5, while changes in absorbance upon hydrolysis of the β-lactam ring were monitored at 300 nm and 260 nm respectively in UV-transparent 96-well microtiter assay plates. Maximum rates of hydrolysis were compared to those in control wells (without inhibitors), and percentages of enzyme inhibition were calculated for each concentration of inhibitor. The concentration of inhibitor needed to reduce the initial rate of hydrolysis of substrate by 50% (IC50) was calculated as the residual activity of β-lactamase at 486 nm using GraFit version 7 kinetics software package (Erithacus Software, Surrey, UK).
# (§3) Using the methodology described above, examples of the current invention were evaluated for their ability to inhibit β-lactamase enzymes from all four Ambler classifications (A through D). […] NT=Not tested.
# [1] = molecular target: T2, VIM-2 metallo β-lactamase (Pseudomonas aeruginosa, UniProt Q9K2N0); assay: β-lactamase enzyme inhibition assay, VIM-2 (nitrocefin substrate); assay type: biochemical; conditions: 15 min preincubation at 37° C.; nitrocefin 100 μM, 486 nm; read-out: IC50 VIM-2 (Class B)
# T2 construct: made in house; host or cells: E. coli BL21(DE3)
# Protocol: For VIM-2 metallo β-lactamase, the procedure was identical with the following exceptions, first the protein was not pH adjusted to pH 5 with 50 mM sodium acetate. Second, the chromatography step was changed to a 5 ml Q sepharose anion exchange column pre-equilibrated with 50 mM Hepes pH 7.5, and elution of the protein was achieved by a linear gradient of NaCl (0-600 mM). Finally, the VIM-2 purification required a second run (3rd step) on the Q sepharose anion exchange column to achieve acceptable purity (>90%).
# as §2, §3
# [2] = tested on: K. pneumoniae expressing the class A carbapenemase KPC-2 and the class B carbapenemase VIM-4; assay: Broth microdilution MIC assay, potentiation of meropenem; assay type: cell-based; conditions: for MIC (μg/mL) of exemplary compounds in presence of fixed β-lactams, K.P. A-1797 KPC-2 VIM-4: Fixed Mero 4 μg/mL, CAMHB, 16-20 hours at 37° C.
# From the text: (§4) To determine the ability of test compounds to potentiate the inhibition of the growth of bacterial strains that produce beta-lactamase enzymes, classic cell based broth microdilution MIC assays were employed. Six bacteria strains producing beta-lactamase enzymes were used: E. coli expressing the Class A Extended Spectrum Beta-Lactamase (ESBL) CTX-M-15, E. cloacae expressing the Class C P99, K. pneumoniae expressing the Class A carbapenemase KPC-3, P.aeruginosa expressing the Class B carbapenemase VIM-2, K. pneumoniae expressing the class A carbapenemase KPC-2 and the class B carbapenemase VIM-4, and K. pneumoniae producing the Class D carbapenemase OXA-48. The assay was conducted in Cation Adjusted Mueller Hinton Broth (CAMHB, BD #212322, BD Diagnostic Systems, Sparks, Md.). Bacteria strains were grown for 3-5 hours in CAMHB broth. Test compounds were added to a microtiter plate in 2-fold serial dilutions in CAMHB in a final concentration range of 32 μg/mL to 0.015 μg/mL. An overlay of CAMHB containing a Beta-lactam was added to the compounds at a final static concentration of 4 μg/mL. […] In addition to the titration of test compounds the MICs of a panel of control beta-lactams is also tested to ensure the strains are behaving consistently from test to test. Once the test compound and antibiotics are added the plates can be inoculated according to CLSI broth microdilution method. After inoculation, the plates are incubated for 16-20 hours at 37° C., then the Minimal Inhibitory Concentration (MIC) of the test compound is determined visually.
# (§5) Using the methodology described above, examples of the current invention were evaluated for their ability to inhibit the growth of β-lactamase-producing bacteria in the presence of a β-lactam antibiotic.
# (§6) Representative results are shown in Table 3 where A represents an MIC of the fixed β-lactam antibiotic in the presence of >32 μg/mL of a β-lactamase inhibitor of exemplary compounds, B represents the MIC in the presence of between 8 and 32 μg/mL of a β-lactamase inhibitor of exemplary compounds, and C represents the MIC in the presence of ≤4 μg/mL of a β-lactamase inhibitor of exemplary compounds. NT=Not Tested.
# [3] = tested on: P.aeruginosa expressing the Class B carbapenemase VIM-2; assay: as above; assay type: cell-based; conditions: for MIC (μg/mL) of exemplary compounds in presence of fixed β-lactams, P. aerug. 2775 VIM-2: Fixed Mero 4 μg/mL, CAMHB, 16-20 hours at 37° C.
# From the text: as §4, §5, §6
# [4] = tested on: E. cloacae expressing the Class C P99; assay: Broth microdilution MIC assay, potentiation of ceftazidime; assay type: cell-based; conditions: for MIC (μg/mL) of exemplary compounds in presence of fixed β-lactams, E. cl. 144200 p99 AmpC: Fixed CAZ 4 μg/mL, CAMHB, 16-20 hours at 37° C.
# From the text: as §4, §5, §6
# [5] = tested on: E. coli expressing the Class A Extended Spectrum Beta-Lactamase (ESBL) CTX-M-15; assay: as above; assay type: cell-based; conditions: for MIC (μg/mL) of exemplary compounds in presence of fixed β-lactams, E. coli ESBL4 CTX-M-15: Fixed CAZ 4 μg/mL, CAMHB, 16-20 hours at 37° C.
# From the text: as §4, §5, §6
# SHV-5 = molecular target: T3, SHV-5 (Klebsiella pneumoniae, UniProt P0A3M1); assay: β-lactamase enzyme inhibition assay, SHV-5 (cefotaxime substrate); assay type: biochemical
# T3 construct: made in house; host or cells: E. coli BL21(DE3)
# T3 sequence (P0A3M1 22-286): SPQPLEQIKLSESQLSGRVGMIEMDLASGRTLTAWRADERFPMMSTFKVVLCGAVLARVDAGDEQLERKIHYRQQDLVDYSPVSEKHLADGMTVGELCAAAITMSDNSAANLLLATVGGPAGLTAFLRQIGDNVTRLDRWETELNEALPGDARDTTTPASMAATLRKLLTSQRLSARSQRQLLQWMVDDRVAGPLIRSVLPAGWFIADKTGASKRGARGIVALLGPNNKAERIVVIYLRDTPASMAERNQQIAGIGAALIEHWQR
# Protocol: as §1, §2, §3
# OXA-48 = molecular target: T4, OXA-48 (Klebsiella pneumoniae, UniProt Q6XEC0); assay: β-lactamase enzyme inhibition assay, OXA-48 (nitrocefin substrate); assay type: biochemical
# T4 construct: made in house; host or cells: E. coli BL21(DE3)
# T4 sequence (Q6XEC0 23-265 limits assumed): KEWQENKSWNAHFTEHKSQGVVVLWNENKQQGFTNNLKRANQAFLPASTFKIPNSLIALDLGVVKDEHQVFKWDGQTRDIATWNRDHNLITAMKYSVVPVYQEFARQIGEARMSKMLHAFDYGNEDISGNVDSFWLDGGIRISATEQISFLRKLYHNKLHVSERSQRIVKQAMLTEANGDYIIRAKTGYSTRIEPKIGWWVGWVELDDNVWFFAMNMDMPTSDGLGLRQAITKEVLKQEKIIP
# Protocol: as §1, §2, §3
# [6] = tested on: K. pneumoniae producing the Class D carbapenemase OXA-48; assay: Broth microdilution MIC assay, potentiation of meropenem; assay type: cell-based; conditions: Fixed Mero 4 μg/mL; CAMHB, 16-20 hours at 37° C.
# From the text: as §4, §5
# [7] = tested on: K. pneumoniae expressing the Class A carbapenemase KPC-3; assay: as above; assay type: cell-based; conditions: Fixed Mero 4 μg/mL; CAMHB, 16-20 hours at 37° C.
# From the text: as §4, §5
# KPC-2 = molecular target: T5, KPC-2 (Klebsiella pneumoniae, UniProt Q9F663); assay: β-lactamase enzyme inhibition assay, KPC-2 (imipenem substrate); assay type: biochemical
# T5 construct: made in house; host or cells: E. coli BL21(DE3)
# T5 sequence (Q9F663 25-293 limits assumed): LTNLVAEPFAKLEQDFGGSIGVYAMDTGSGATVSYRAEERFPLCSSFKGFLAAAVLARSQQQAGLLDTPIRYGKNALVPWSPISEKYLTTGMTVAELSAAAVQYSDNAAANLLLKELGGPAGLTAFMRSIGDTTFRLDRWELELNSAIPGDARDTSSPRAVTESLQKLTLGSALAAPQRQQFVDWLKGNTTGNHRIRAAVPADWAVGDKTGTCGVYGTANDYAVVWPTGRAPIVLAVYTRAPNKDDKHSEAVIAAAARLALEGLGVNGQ
# Protocol: as §1, §2, §3
# T1 sequence (P05364 21-381): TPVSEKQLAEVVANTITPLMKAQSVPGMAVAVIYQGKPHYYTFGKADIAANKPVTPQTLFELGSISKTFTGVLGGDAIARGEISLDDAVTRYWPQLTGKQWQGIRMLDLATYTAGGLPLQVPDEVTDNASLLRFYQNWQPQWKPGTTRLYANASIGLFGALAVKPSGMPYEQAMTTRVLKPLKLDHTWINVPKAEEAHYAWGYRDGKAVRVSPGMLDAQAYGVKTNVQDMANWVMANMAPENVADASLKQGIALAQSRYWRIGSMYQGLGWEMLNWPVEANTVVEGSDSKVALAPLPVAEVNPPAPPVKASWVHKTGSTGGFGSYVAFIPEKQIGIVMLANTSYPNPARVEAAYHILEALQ
Compound,IC50 (p99 AmpC),IC50 [1],"MIC (μg/mL) of exemplary compounds in presence of fixed β-lactams, K.P. A-1797 KPC-2 VIM-4 [2]","MIC (μg/mL) of exemplary compounds in presence of fixed β-lactams, P. aerug. 2775 VIM-2 [3]","MIC (μg/mL) of exemplary compounds in presence of fixed β-lactams, E. cl. 144200 p99 AmpC [4]","MIC (μg/mL) of exemplary compounds in presence of fixed β-lactams, E. coli ESBL4 CTX-M-15 [5]",IC50 (SHV-5),IC50 (OXA-48),"MIC (μg/mL) of exemplary compounds in presence of fixed β-lactams, K. P. 11978 OXA-48 [6]","MIC (μg/mL) of exemplary compounds in presence of fixed β-lactams, K. P. 156319 KPC-3 [7]",IC50 (KPC-2),"MIC alone of partner antibiotic ([4]; antibiotic alone, E. cloacae expressing Class C P99)","MIC alone of partner antibiotic ([5]; antibiotic alone, E. coli expressing Ambler Class A ESBL CTX-M-15)","MIC alone of partner antibiotic ([2]; antibiotic alone, K. pneumoniae expressing KPC-2 and VIM-4)","MIC alone of partner antibiotic ([3]; antibiotic alone, P. aeruginosa expressing VIM-2)"
"CC(F)C(=O)N[C@H]1Cc2cccc(C(=O)O)c2OB1O (mixture of isomers) [Example 102, (3R)-3-(2-fluoropropanamido)-2-hydroxy-3,4-dihydro-2H -benzo[e][1,2]oxaborinine-8-carboxylic acid]",< 0.1 µM,1 to 10 µM,B (B represents the MIC in the presence of between 8 and 32 μg/mL of a β-lactamase inhibitor),C (C represents the MIC in the presence of ≤4 μg/mL of a β-lactamase inhibitor),C (C represents the MIC in the presence of ≤4 μg/mL of a β-lactamase inhibitor),C (C represents the MIC in the presence of ≤4 μg/mL of a β-lactamase inhibitor),< 0.1 µM,0.1 to 1 µM,C (C represents the MIC in the presence of ≤4 μg/mL of a β-lactamase inhibitor),C (C represents the MIC in the presence of ≤4 μg/mL of a β-lactamase inhibitor),< 0.1 µM,,,,
"CC(C)(O/N=C(\C(=O)N[C@@H]1C(=O)N2C(C(=O)[O-])=C(C[n+]3ccccc3)CS[C@H]12)c1csc(N)n1)C(=O)O [Ceftazidime, reference compound]",,,,,,,,,,,,128 mg/L,> 128 mg/L,,
"CCC(F)(F)C(=O)N[C@H]1Cc2cccc(C(=O)O)c2OB1O [Example 1, (R)-3-(2,2-difluorobutanamido)-2-hydroxy-3,4-dihydro-2H-benzo [e] [1,2] oxaborinine-8-carboxylic acid]",< 0.1 µM,1 to 10 µM,B (B represents the MIC in the presence of between 8 and 32 μg/mL of a β-lactamase inhibitor),C (C represents the MIC in the presence of ≤4 μg/mL of a β-lactamase inhibitor),C (C represents the MIC in the presence of ≤4 μg/mL of a β-lactamase inhibitor),C (C represents the MIC in the presence of ≤4 μg/mL of a β-lactamase inhibitor),< 0.1 µM,0.1 to 1 µM,C (C represents the MIC in the presence of ≤4 μg/mL of a β-lactamase inhibitor),B (B represents the MIC in the presence of between 8 and 32 μg/mL of a β-lactamase inhibitor),0.1 to 1 µM,,,,
"O=C(CCCC(F)(F)F)N[C@H]1Cc2cccc(C(=O)O)c2OB1O [Example 2, (R)-2-hydroxy-3-(5,5,5-trifluoropentanamido)-3,4-dihydro-2H-benzo[e][1,2]oxaborinine-8-carboxylic acid]",< 0.1 µM,1 to 10 µM,C (C represents the MIC in the presence of ≤4 μg/mL of a β-lactamase inhibitor),B (B represents the MIC in the presence of between 8 and 32 μg/mL of a β-lactamase inhibitor),C (C represents the MIC in the presence of ≤4 μg/mL of a β-lactamase inhibitor),C (C represents the MIC in the presence of ≤4 μg/mL of a β-lactamase inhibitor),< 0.1 µM,0.1 to 1 µM,C (C represents the MIC in the presence of ≤4 μg/mL of a β-lactamase inhibitor),C (C represents the MIC in the presence of ≤4 μg/mL of a β-lactamase inhibitor),< 0.1 µM,,,,
"CC(F)(F)CC(=O)N[C@H]1Cc2cccc(C(=O)O)c2OB1O [Example 3, (R)-3-(3,3-difluorobutanamido)-2-hydroxy-3,4-dihydro-2H-benzo [e][1,2]oxaborinine-8-carboxylic acid]",< 0.1 µM,1 to 10 µM,C (C represents the MIC in the presence of ≤4 μg/mL of a β-lactamase inhibitor),C (C represents the MIC in the presence of ≤4 μg/mL of a β-lactamase inhibitor),C (C represents the MIC in the presence of ≤4 μg/mL of a β-lactamase inhibitor),C (C represents the MIC in the presence of ≤4 μg/mL of a β-lactamase inhibitor),< 0.1 µM,0.1 to 1 µM,C (C represents the MIC in the presence of ≤4 μg/mL of a β-lactamase inhibitor),C (C represents the MIC in the presence of ≤4 μg/mL of a β-lactamase inhibitor),0.1 to 1 µM,,,,
"C[C@@H](O)[C@H]1C(=O)N2C(C(=O)O)=C(S[C@@H]3CN[C@H](C(=O)N(C)C)C3)[C@H](C)[C@H]12 [Meropenem, reference compound]",,,,,,,,,,,,,,64 mg/L,16 mg/L

# — US10464952B2, “Beta-lactamase inhibitors” (priority 2015, dated 2019)
